Reference: ChEMBL document CHEMBL3885861, “Open TG-GATES”

Species on record: Rattus norvegicus
Experiment: Open TG-GATES - Regimen: Single
Assay type: toxicity, organism-based, Sprague-Dawley
Set-up: regimen Single, gender Male, age 6 weeks
Conditions: in vivo, po, route gavage; for APTT / Bas / Eos / Fbg / Ht / Lym / MCH / MCHC / MCV / Mono / Neu / PT / Plat / RBC / Ret / WBC: tissue Blood; for KIDNEY_L / KIDNEY_R / KIDNEY_TOTAL: tissue Kidney; for LIVER: tissue Liver; for ALP / ALT / AST / BUN / CRE / Ca / Cl / DBIL / GLC / IP / K / LDH / Na / PL / RALB / TBIL / TC / TG / TP / gamma-GTP: tissue Plasma
[1] = 30 mg/kg, 3 h, dose level Middle
[2] = 30 mg/kg, 6 h, dose level Middle
[3] = 30 mg/kg, 9 h, dose level Middle
[4] = 30 mg/kg, 24 h, dose level Middle
[5] = 100 mg/kg, 3 h, dose level High
[6] = 100 mg/kg, 6 h, dose level High
[7] = 100 mg/kg, 9 h, dose level High
[8] = 100 mg/kg, 24 h, dose level High

What does the source list for `Cc1cccc(Nc2cc(Cl)nc(SCC(=O)O)n2)c1C` [PIRINIXIC ACID]?
TERMINAL_BW [1]: 204.3 g; APTT [1]: 17.1 s; Bas [1]: 0%; Eos [1]: 0.4%; Fbg [1]: 275 mg/dL; Ht [1]: 39.7%; Lym [1]: 77.6%; MCH [1]: 21.5 pg; MCHC [1]: 34.3%; MCV [1]: 62.6 fL; Mono [1]: 3%; Neu [1]: 18%; PT [1]: 12.5 s; Plat [1]: 130.4 x10_4/uL; RBC [1]: 634 x10_4/ul; Ret [1]: 7.9%; WBC [1]: 74.5 x10_2/uL; KIDNEY_L [1]: 0.9 g; KIDNEY_R [1]: 0.9 g; KIDNEY_TOTAL [1]: 1.8 g; LIVER [1]: 8.9 g; ALP [1]: 1689.8 IU/L; ALT [1]: 49.2 IU/L; AST [1]: 74 IU/L; BUN [1]: 9 mg/dL; CRE [1]: 0.1 mg/dL; Ca [1]: 11 mg/dL; Cl [1]: 103.8 meq/L; DBIL [1]: 0.088 mg/dL; GLC [1]: 184.2 mg/dL; IP [1]: 10.1 mg/dL; K [1]: 3.9 meq/L; LDH [1]: 65.6 IU/L; Na [1]: 139.8 meq/L; PL [1]: 172.4 mg/dL; RALB [1]: 2.7 g/dL; TBIL [1]: 0.052 mg/dL; TC [1]: 79 mg/dL; TG [1]: 251.8 mg/dL; TP [1]: 5.8 g/dL; gamma-GTP [1]: 1 IU/L; TERMINAL_BW [2]: 205.1 g; APTT [2]: 16.2 s; Bas [2]: 0%; Eos [2]: 1%; Fbg [2]: 274.6 mg/dL; Ht [2]: 40.3%; Lym [2]: 70.8%; MCH [2]: 20.8 pg; MCHC [2]: 34.1%; MCV [2]: 61 fL; Mono [2]: 2.4%; Neu [2]: 25.4%; PT [2]: 12.4 s; Plat [2]: 117.5 x10_4/uL; RBC [2]: 661.2 x10_4/ul; Ret [2]: 7.5%; WBC [2]: 71.7 x10_2/uL; KIDNEY_L [2]: 0.9 g; KIDNEY_R [2]: 0.9 g; KIDNEY_TOTAL [2]: 1.7 g; LIVER [2]: 8.2 g; ALP [2]: 1624.2 IU/L; ALT [2]: 46.6 IU/L; AST [2]: 77.8 IU/L; BUN [2]: 8.8 mg/dL; CRE [2]: 0.2 mg/dL; Ca [2]: 10.7 mg/dL; Cl [2]: 105.4 meq/L; DBIL [2]: 0.036 mg/dL; GLC [2]: 177.8 mg/dL; IP [2]: 10.7 mg/dL; K [2]: 4.3 meq/L; LDH [2]: 59.8 IU/L; Na [2]: 139.6 meq/L; PL [2]: 149.4 mg/dL; RALB [2]: 2.6 g/dL; TBIL [2]: 0.046 mg/dL; TC [2]: 76.4 mg/dL; TG [2]: 115.4 mg/dL; TP [2]: 5.4 g/dL; gamma-GTP [2]: 1.4 IU/L; TERMINAL_BW [3]: 204.7 g; APTT [3]: 15.6 s; Bas [3]: 0%; Eos [3]: 0.6%; Fbg [3]: 267.4 mg/dL; Ht [3]: 38.8%; Lym [3]: 78.8%; MCH [3]: 21.1 pg; MCHC [3]: 34.3%; MCV [3]: 61.4 fL; Mono [3]: 2%; Neu [3]: 18%; PT [3]: 12.3 s; Plat [3]: 121.4 x10_4/uL; RBC [3]: 631.6 x10_4/ul; Ret [3]: 7.8%; WBC [3]: 66.7 x10_2/uL; KIDNEY_L [3]: 0.9 g; KIDNEY_R [3]: 0.8 g; KIDNEY_TOTAL [3]: 1.7 g; LIVER [3]: 7.9 g; ALP [3]: 1566.2 IU/L; ALT [3]: 35.8 IU/L; AST [3]: 65.8 IU/L; BUN [3]: 9.6 mg/dL; CRE [3]: 0.2 mg/dL; Ca [3]: 10.5 mg/dL; Cl [3]: 104.2 meq/L; DBIL [3]: 0.026 mg/dL; GLC [3]: 185.8 mg/dL; IP [3]: 11.1 mg/dL; K [3]: 3.9 meq/L; LDH [3]: 61.6 IU/L; Na [3]: 140.6 meq/L; PL [3]: 122.8 mg/dL; RALB [3]: 2.6 g/dL; TBIL [3]: 0.038 mg/dL; TC [3]: 67.8 mg/dL; TG [3]: 68.8 mg/dL; TP [3]: 5.3 g/dL; gamma-GTP [3]: 1.4 IU/L; TERMINAL_BW [4]: 211.1 g; APTT [4]: 16.1 s; Bas [4]: 0%; Eos [4]: 1.2%; Fbg [4]: 216.4 mg/dL; Ht [4]: 39.1%; Lym [4]: 76.2%; MCH [4]: 21.4 pg; MCHC [4]: 34.5%; MCV [4]: 61.9 fL; Mono [4]: 3%; Neu [4]: 19.6%; PT [4]: 13 s; Plat [4]: 110.1 x10_4/uL; RBC [4]: 632.4 x10_4/ul; Ret [4]: 6.8%; WBC [4]: 75.4 x10_2/uL; KIDNEY_L [4]: 0.9 g; KIDNEY_R [4]: 0.9 g; KIDNEY_TOTAL [4]: 1.8 g; LIVER [4]: 10.2 g; ALP [4]: 1775.4 IU/L; ALT [4]: 51.8 IU/L; AST [4]: 73.4 IU/L; BUN [4]: 14.4 mg/dL; CRE [4]: 0.2 mg/dL; Ca [4]: 10.7 mg/dL; Cl [4]: 104 meq/L; DBIL [4]: 0.018 mg/dL; GLC [4]: 189.6 mg/dL; IP [4]: 8.6 mg/dL; K [4]: 4 meq/L; LDH [4]: 58 IU/L; Na [4]: 141.6 meq/L; PL [4]: 111.4 mg/dL; RALB [4]: 2.6 g/dL; TBIL [4]: 0.03 mg/dL; TC [4]: 59.2 mg/dL; TG [4]: 37.6 mg/dL; TP [4]: 5.3 g/dL; gamma-GTP [4]: 1.2 IU/L; TERMINAL_BW [5]: 203.1 g; APTT [5]: 16 s; Bas [5]: 0%; Eos [5]: 0.8%; Fbg [5]: 246.6 mg/dL; Ht [5]: 38.5%; Lym [5]: 76.8%; MCH [5]: 21.8 pg; MCHC [5]: 34.4%; MCV [5]: 63.3 fL; Mono [5]: 3%; Neu [5]: 18.2%; PT [5]: 12.6 s; Plat [5]: 113.6 x10_4/uL; RBC [5]: 607.8 x10_4/ul; Ret [5]: 7.7%; WBC [5]: 82.7 x10_2/uL; KIDNEY_L [5]: 0.9 g; KIDNEY_R [5]: 0.8 g; KIDNEY_TOTAL [5]: 1.7 g; LIVER [5]: 8.8 g; ALP [5]: 1788.2 IU/L; ALT [5]: 54.6 IU/L; AST [5]: 82.6 IU/L; BUN [5]: 11 mg/dL; CRE [5]: 0.2 mg/dL; Ca [5]: 11 mg/dL; Cl [5]: 102.2 meq/L; DBIL [5]: 0.046 mg/dL; GLC [5]: 179.8 mg/dL; IP [5]: 10.4 mg/dL; K [5]: 4 meq/L; LDH [5]: 69.8 IU/L; Na [5]: 139.2 meq/L; PL [5]: 156.6 mg/dL; RALB [5]: 2.5 g/dL; TBIL [5]: 0.058 mg/dL; TC [5]: 80.8 mg/dL; TG [5]: 120.2 mg/dL; TP [5]: 5.4 g/dL; gamma-GTP [5]: 1 IU/L; TERMINAL_BW [6]: 202.6 g; APTT [6]: 16 s; Bas [6]: 0%; Eos [6]: 0.6%; Fbg [6]: 267.4 mg/dL; Ht [6]: 39.4%; Lym [6]: 74%; MCH [6]: 21.5 pg; MCHC [6]: 34.3%; MCV [6]: 62.6 fL; Mono [6]: 2.4%; Neu [6]: 22.2%; PT [6]: 12.1 s; Plat [6]: 116.2 x10_4/uL; RBC [6]: 628.6 x10_4/ul; Ret [6]: 7.5%; WBC [6]: 72.4 x10_2/uL; KIDNEY_L [6]: 0.9 g; KIDNEY_R [6]: 0.9 g; KIDNEY_TOTAL [6]: 1.7 g; LIVER [6]: 7.8 g; ALP [6]: 1738.4 IU/L; ALT [6]: 52 IU/L; AST [6]: 81.4 IU/L; BUN [6]: 9.4 mg/dL; CRE [6]: 0.2 mg/dL; Ca [6]: 10.6 mg/dL; Cl [6]: 104.6 meq/L; DBIL [6]: 0.036 mg/dL; GLC [6]: 178.6 mg/dL; IP [6]: 10.9 mg/dL; K [6]: 4.3 meq/L; LDH [6]: 54.6 IU/L; Na [6]: 139.4 meq/L; PL [6]: 152.4 mg/dL; RALB [6]: 2.5 g/dL; TBIL [6]: 0.052 mg/dL; TC [6]: 80.4 mg/dL; TG [6]: 105.4 mg/dL; TP [6]: 5.3 g/dL; gamma-GTP [6]: 1.6 IU/L; TERMINAL_BW [7]: 203.7 g; APTT [7]: 16.5 s; Bas [7]: 0%; Eos [7]: 0.4%; Fbg [7]: 248 mg/dL; Ht [7]: 40%; Lym [7]: 79.6%; MCH [7]: 21.8 pg; MCHC [7]: 34.3%; MCV [7]: 63.6 fL; Mono [7]: 1.8%; Neu [7]: 17.8%; PT [7]: 12.4 s; Plat [7]: 109.8 x10_4/uL; RBC [7]: 628.8 x10_4/ul; Ret [7]: 8.1%; WBC [7]: 76 x10_2/uL; KIDNEY_L [7]: 0.9 g; KIDNEY_R [7]: 0.9 g; KIDNEY_TOTAL [7]: 1.8 g; LIVER [7]: 7.8 g; ALP [7]: 2137.8 IU/L; ALT [7]: 46 IU/L; AST [7]: 74.2 IU/L; BUN [7]: 9.6 mg/dL; CRE [7]: 0.2 mg/dL; Ca [7]: 10.5 mg/dL; Cl [7]: 104.4 meq/L; DBIL [7]: 0.028 mg/dL; GLC [7]: 192 mg/dL; IP [7]: 11 mg/dL; K [7]: 4 meq/L; LDH [7]: 58.8 IU/L; Na [7]: 140.8 meq/L; PL [7]: 115.2 mg/dL; RALB [7]: 2.6 g/dL; TBIL [7]: 0.04 mg/dL; TC [7]: 59.4 mg/dL; TG [7]: 85.2 mg/dL; TP [7]: 5.4 g/dL; gamma-GTP [7]: 1.2 IU/L; TERMINAL_BW [8]: 210.5 g; APTT [8]: 16.2 s; Bas [8]: 0%; Eos [8]: 1%; Fbg [8]: 206.8 mg/dL; Ht [8]: 38.4%; Lym [8]: 76%; MCH [8]: 21.8 pg; MCHC [8]: 34.5%; MCV [8]: 63.3 fL; Mono [8]: 2.6%; Neu [8]: 20.2%; PT [8]: 13.1 s; Plat [8]: 109.5 x10_4/uL; RBC [8]: 607 x10_4/ul; Ret [8]: 7.2%; WBC [8]: 74.1 x10_2/uL; KIDNEY_L [8]: 0.9 g; KIDNEY_R [8]: 1 g; KIDNEY_TOTAL [8]: 1.9 g; LIVER [8]: 10.5 g; ALP [8]: 1720.8 IU/L; ALT [8]: 53.4 IU/L; AST [8]: 77.4 IU/L; BUN [8]: 14.2 mg/dL; CRE [8]: 0.2 mg/dL; Ca [8]: 10.7 mg/dL; Cl [8]: 104.2 meq/L; DBIL [8]: 0.018 mg/dL; GLC [8]: 195.4 mg/dL; IP [8]: 8.6 mg/dL; K [8]: 4 meq/L; LDH [8]: 60.4 IU/L; Na [8]: 142.2 meq/L; PL [8]: 96.4 mg/dL; RALB [8]: 2.6 g/dL; TBIL [8]: 0.026 mg/dL; TC [8]: 50.2 mg/dL; TG [8]: 31.4 mg/dL; TP [8]: 5.2 g/dL; gamma-GTP [8]: 1.2 IU/L
